Where two headings read alike, the source gives them in different places.
Key:
[1] = tested on: Xcc; assay: Xcc growth inhibition on SB-agar plates; type: cell-based, Xanthomonas citri subsp. citri; conditions: 24 h at 28 °C
Method: (§1) To evaluate the sensitivity of Xcc to C5, C12, C17 and C19, 100 µL of a bacterial suspension (containing ~10^9 cells mL^−1) were mixed with 4 mL of SB medium (5 g L^−1 sucrose, 5 g L^−1 yeast extract, 5 g L^−1 peptone, and 1 g L^−1 glutamic acid, pH 7.0) and 0.7% (w v^−1) molten agar and poured onto SB-1.5% (w v^−1) agar plates supplemented with 25 µg mL^−1 ampicillin. After hardening, 2 µL of a 10, 100 and 1000 µM solution of each compound were added onto the agar surface. The zones of growth inhibition were photographed after incubation for 24 h at 28 °C. To assess the compound inhibition effect on Xcc growth in liquid medium, overnight cultures were subcultured into fresh SB medium at 2% inoculums and grown for 6 h in the presence of 1 mM C12. Samples were removed at 0, 2, 4 and 6 h, serially diluted and plated on SB-1.5% (w v^−1) agar. Colonies were counted after 48 h of incubation at 28 °C.

[2] = molecular target: T1, XccFPR (Xanthomonas citri pv. citri, UniProt A0AAI7ZED9); assay: NADPH-dependent DCPIP diaphorase activity of XccFPR, dose-response of inhibitors; type: biochemical, Xanthomonas citri subsp. citri; conditions: for inhibitory effect on XccFPR (in words): C12 derived compounds D1–D8
T1 sequence (A0AAI7ZED9 1-259): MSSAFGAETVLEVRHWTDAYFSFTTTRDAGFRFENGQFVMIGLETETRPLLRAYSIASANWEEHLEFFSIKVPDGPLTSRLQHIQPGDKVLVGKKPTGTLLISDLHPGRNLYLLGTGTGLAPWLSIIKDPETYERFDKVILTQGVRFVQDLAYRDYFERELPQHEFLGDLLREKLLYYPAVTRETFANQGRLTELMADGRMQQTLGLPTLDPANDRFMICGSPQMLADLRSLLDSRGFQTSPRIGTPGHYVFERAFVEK
Method: (§2) When assayed in regular cuvettes, the DCPIP diaphorase activity of XccFPR was determined at 25 °C using a Cary 100 (Agilent Technologies Inc., Santa Clara, CA, USA) spectrophotometer as previously established. […] Positive controls (without any hit compound) were included in every reaction set. […] The DMSO concentration was kept at 2% in all samples. All kinetic experiments were performed in triplicate. The effect of the inhibitors on Km and kcat was determined by fitting the datasets to the Michaelis-Menten model. Additionally, data were globally fit to either Lineweaver-Burk equations for uncompetitive or non-competitive inhibition, yielding Ki for each compound (Equations (1) and (2), respectively).

[3] = molecular target: T1, XccFPR; assay: Inhibition constants and mechanisms, XccFPR diaphorase activity as a function of NADPH at increasing inhibitor concentrations; type: biochemical, Xanthomonas citri subsp. citri; conditions: 25 °C, 50 mM Tris/HCl, 2% DMSO, pH 8.0; for Ki: global fit to Lineweaver–Burk inhibition model; for Inhibition Mechanism: versus NADPH
Method: as §2
(1) [e]/V0=(1+[I]/K^′i)/kcat+Km/kcat·1/[S]
(2) [e]/V0=(1+[I]/Ki)/kcat+(1+[I]/Ki)·Km/kcat·1/[S]

[4] = tested on: Xcc; assay: Xcc growth/viability in liquid SB medium (colony-forming capacity); type: cell-based, Xanthomonas citri subsp. citri; conditions: 1 mM compound, 28 °C, 0–6 h, control 2% DMSO
Method: as §1

[5] = molecular target: T1, XccFPR; assay: Thermal stability of XccFPR, midpoint temperature for flavin release (TmFAD); type: binding, Xanthomonas citri subsp. citri; conditions: 4 µM XccFPR
Excerpt: The increase in fluorescence of the FAD cofactor when dissociated from the protein upon thermal unfolding was used to evaluate XccFPR stability under different conditions and to assess related midpoint temperature for flavin release (TmFAD). Fluorescence thermal denaturation curves were monitored on 96-well plates using a Stratagene Mx3005P qPCR detection system (Agilent Technologies Inc., Santa Clara, CA, USA). A FAM filter set (λexc = 492 nm; λem = 516 nm), which overlaps the fluorescence spectrum of the isoalloxazine ring was used to evaluate XccFPR midpoint temperature for flavin release (TmFAD) when free or in the presence of selected compounds. Measurements were performed using 4 µM protein in 50 mM Tris/HCl, pH 8.0 in a 100 µL final volume. Each measurement was done in triplicate.

[6] = molecular target: T2, AnFNR (Nostoc sp., UniProt P21890); assay: NADPH-dependent DCPIP diaphorase activity of AnFNR, dose-response of inhibitors; type: biochemical, Anabaena PCC 7119; conditions: 95 µM DCPIP, 50 μM NADPH; for IC50 / ICmax (concentration causing maximal inhibition): 25 °C, 2% DMSO, pH 8.0, 4 nM AnFNR; for IC50: 50 mM Tris/HCl, compound 0–800 μM; for % Inhibition at ICmax: 4 nM AnFNR
T2 construct: made in house; host or cells: Escherichia coli
T2 sequence (P21890 138-440 limits assumed): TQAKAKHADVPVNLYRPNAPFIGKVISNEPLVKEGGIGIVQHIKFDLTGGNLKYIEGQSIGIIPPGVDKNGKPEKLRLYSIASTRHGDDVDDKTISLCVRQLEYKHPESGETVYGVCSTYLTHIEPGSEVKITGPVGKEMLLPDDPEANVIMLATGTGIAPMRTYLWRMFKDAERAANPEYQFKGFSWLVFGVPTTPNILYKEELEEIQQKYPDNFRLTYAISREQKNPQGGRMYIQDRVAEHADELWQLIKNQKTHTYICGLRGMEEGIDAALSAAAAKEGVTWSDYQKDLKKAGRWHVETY
Method: We finally assessed the selectivity of our XccFPR inhibitors by testing the diaphorase activity of the plastidic Anabaena PCC 7119 FNR (AnFNR) at increasing concentrations of D2, D5 and D8 (Table 3).
as §2

[7] = molecular target: T1, XccFPR; assay: Steady-state kinetic parameters of XccFPR NADPH-dependent DCPIP diaphorase activity; type: biochemical, Xanthomonas citri subsp. citri
Method: When assayed in regular cuvettes, the DCPIP diaphorase activity of XccFPR was determined at 25 °C using a Cary 100 (Agilent Technologies Inc., Santa Clara, CA, USA) spectrophotometer as previously established. […] Positive controls (without any hit compound) were included in every reaction set. […] All kinetic experiments were performed in triplicate. The effect of the inhibitors on Km and kcat was determined by fitting the datasets to the Michaelis-Menten model. Additionally, data were globally fit to either Lineweaver-Burk equations for uncompetitive or non-competitive inhibition, yielding Ki for each compound (Equations (1) and (2), respectively).

[8] = molecular target: T1, XccFPR; conditions: ferricyanide as electron acceptor; cited from earlier work
[9] = compound 2 mM, NADP+ 50 µM, DMSO 2 %
[10] = 25 °C, 2% DMSO, pH 8.0, 20 nM XccFPR, 95 µM DCPIP, 50 μM NADPH
[11] = compound 1 mM, NADP+ 50 µM, DMSO 2 %

## CSc1sc(NC(=O)Nc2ccc(F)c(Cl)c2)c(-c2ccc(Cl)cc2)c1C#N [C12, 1-(3-chloro-4-fluorophenyl)-3-[3-(4-chlorophenyl)-4-cyano-5-(methylsulfanyl)thiophen-2-yl]urea]
[1]; 2 µL of 10, 100 and 1000 µM solutions
  Xcc growth inhibition on solid SB medium: inhibited Xcc growth at all concentrations assayed
[1]; solid SB medium
  lowest concentration assayed that inhibited Xcc growth: 10 µM
[2]
  IC50: 7.7 ± 1 µM
[3]
  Ki: 4.2 ± 0.9 µM
  Inhibition Mechanism: Non-competitive
[4]
  growth inhibition in liquid medium (bacterial viability): decrease of bacterial viability

## CSc1sc(NC(=O)Nc2cccc(C(F)(F)F)c2)cc1C#N [D2]
[5]; compound 2 mM, DMSO 2 %
  TmFAD: 41.7 ± 0.1 °C
  ΔTmFAD: 0.7±0.2 °C
[5]; [9]
  TmFAD: 46.0 ± 0.1 °C
  ΔTmFAD: 5.0±0.2 °C
[2]; 25 °C, 50 mM Tris/HCl, 2% DMSO, pH 8.0, 20 nM XccFPR, 95 µM DCPIP, 50 μM NADPH
  ICmax (concentration causing maximal inhibition): 175 ± 1 µM
[2]; 25 °C, 50 mM Tris/HCl, 2% DMSO, pH 8.0, 20 nM XccFPR, 95 µM DCPIP, 50 μM NADPH, compound 0–800 μM
  IC50: 26 ± 1 µM
[2]
  inhibitory effect on XccFPR (in words): moderate IC50 but high concentrations were required to abolish XccFPR activity
[2]; [10]
  % Inhibition at ICmax: 100 ± 1%
[6]
  IC50: 27 ± 1 µM
  ICmax (concentration causing maximal inhibition): 100 ± 2 µM
  % Inhibition at ICmax: 99 ± 11%
[3]
  Ki: 28 ± 2 µM
  Inhibition Mechanism: uncompetitive inhibitor

## O=C(Nc1ccc(Cl)cc1)Nc1nnc(SCc2ccc(Cl)cc2)s1 [D5, 1-[5-(4-Chloro-benzylsulfanyl)-[1,3,4]thiadiazol-2-yl]-3-(4-chloro-phenyl)-urea]
[5]; compound 1 mM, DMSO 2 %
  TmFAD: 41.4 ± 0.1 °C
  ΔTmFAD: 0.4±0.2 °C
[5]; [11]
  TmFAD: 46.9 ± 0.1 °C
  ΔTmFAD: 5.9±0.2 °C
[2]
  IC50: 6.6 ± 1.1 µM
[2]; [10]
  % Inhibition at ICmax: 100 ± 2%
[6]
  IC50: 102 ± 1 µM
  ICmax (concentration causing maximal inhibition): >300 µM
  % Inhibition at ICmax: ~47%
[3]
  Ki: 4.3 ± 1.1 µM
  Inhibition Mechanism: Non-competitive

## Cc1c(S(=O)(=O)c2ccc(Cl)cc2)csc1C(=O)Nc1ccc(F)cc1F [D8, 4-(4-chlorobenzenesulfonyl)-N-(2,4-difluorophenyl)-3-methylthiophene-2-carboxamide]
[2]
  IC50: 38 ± 1 µM
  inhibitory effect on XccFPR (in words): moderate IC50 but high concentrations were required to abolish XccFPR activity
[2]; [10]
  % Inhibition at ICmax: 100 ± 1%
[6]
  IC50: 122 ± 1 µM
  ICmax (concentration causing maximal inhibition): >350 µM
  % Inhibition at ICmax: ~73%
[3]
  Ki: 62 ± 19 µM
  Inhibition Mechanism: Non-competitive

## C[S+](C)[O-] [DMSO]
[5]; DMSO 2 %
  ΔTmFAD: -0.4±0.2 °C
[5]; DMSO 2 %, 50 mM Tris/HCl
  TmFAD: 40.6 ± 0.1 °C
[5]; DMSO 5 %
  TmFAD: 39.0 ± 0.1 °C
[5]; DMSO 10 %
  TmFAD: 37.7 ± 0.1 °C
[7]; DMSO below 3%
  effect of solvent on XccFPR enzyme activity: did not modify the kinetic parameters
[7]; DMSO percentages larger than 3%
  effect of solvent on XccFPR enzyme activity: decreased the maximal rate constant

## NC(=O)C1=CN([C@@H]2O[C@H](COP(=O)(O)OP(=O)(O)OC[C@H]3O[C@@H](n4cnc5c(N)ncnc54)[C@H](OP(=O)(O)O)[C@@H]3O)[C@@H](O)[C@H]2O)C=CC1 [NADPH, reference compound]
[8]
  kcat: 122 ± 18 s⁻¹
[7]; NADPH-dependent DCPIP diaphorase activity, 25 °C, pH 8.0
  kcat: 22.6 ± 2.3 s⁻¹
[7]; read-out: Km^NADPH, DCPIP as electron acceptor, 25 °C, pH 8.0
  Km: 6.6 ± 1.1 µM

## NC(=O)c1ccc[n+]([C@@H]2O[C@H](COP(=O)([O-])OP(=O)(O)OC[C@H]3O[C@@H](n4cnc5c(N)ncnc54)[C@H](OP(=O)(O)O)[C@@H]3O)[C@@H](O)[C@H]2O)c1 [NADP^+]
[5]; NADP+ 50 µM, DMSO 2 %
  TmFAD: 46.7 ± 0.1 °C
  ΔTmFAD: 5.7±0.2 °C
[5]; NADP+ 50 µM, no DMSO
  TmFAD: 47.2 ± 0.1 °C
  ΔTmFAD: 6.2±0.2 °C

— publication PMC5943930, “Identification of Inhibitors Targeting Ferredoxin-NADP^+ Reductase from the Xanthomonas citri subsp. citri Phytopathogenic Bacteria” (Molecules : A Journal of Synthetic Chemistry and Natural …, 2017)
